Structures can show the parent of a compound that is named as a salt. ± gives the standard error.
Experiments:
[1] = system: 621-102 (TSC2-deficient); assay: relative viability vs DMSO; higher = less cytotoxic; conditions: serum: 10% FBS, 72 h
[2] = system: 621-103 (TSC2-rescued); assay: as above; conditions: serum: 10% FBS, 72 h
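Further: immortalized renal angiomyolipoma cells stably carrying empty vector or TSC2, dosed in 384-well plates in DMEM, viability normalized to vehicle-treated wells within each plate.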

| Structure (SMILES) | relative viability ([1]; 0.0001 µM) [%] | relative viability ([1]; 0.001 µM) [%] | relative viability ([1]; 0.01 µM) [%] | relative viability ([1]; 0.1 µM) [%] | relative viability ([1]; 1 µM) [%] | relative viability ([1]; 10 µM) [%] | relative viability ([2]; 0.0001 µM) [%] | relative viability ([2]; 0.001 µM) [%] | relative viability ([2]; 0.01 µM) [%] | relative viability ([2]; 0.1 µM) [%] | relative viability ([2]; 1 µM) [%] | relative viability ([2]; 10 µM) [%] |
| --- | --- | --- | --- | --- | --- | --- | --- | --- | --- | --- | --- | --- |
| C[S+]([O-])c1ccc(-c2nc(-c3ccc(F)cc3)c(-c3ccncc3)[nH]2)cc1 (stereo not drawn) | 112 ± 5 | 108.1 ± 0.69 | 98.1 ± 2.8 | 102 ± 1.2 | 111 ± 2 | 110 ± 2.8 | 101.3 ± 0.64 | 98.42 ± 0.75 | 98.6 ± 1.3 | 99.1 ± 2 | 100 ± 1.8 | 98.1 ± 1.3 |
| CC(=O)O[C@H]1C(=O)[C@@]2(C)[C@H]([C@H](OC(=O)c3ccccc3)[C@]3(O)C[C@H](OC(=O)[C@H](O)[C@@H](NC(=O)c4ccccc4)c4ccccc4)C(C)=C1C3(C)C)[C@]1(OC(C)=O)CO[C@@H]1C[C@@H]2O [Paclitaxel] | 54.2 ± 1.8 | 46.8 ± 2.3 | 33.66 ± 0.22 | 33.1 ± 0.46 | 29.6 ± 1.3 | 31.1 ± 2.3 | 69 ± 1.5 | 59.3 ± 0.96 | 40.8 ± 0.42 | 34.5 ± 0.39 | 28.7 ± 0.81 | 42.3 ± 0.75 |
| CC(=O)c1c(C)c2cnc(Nc3ccc(N4CCNCC4)cn3)nc2n(C2CCCC2)c1=O | 103 ± 1.6 | 109.7 ± 0.24 | 110 ± 2.1 | 109 ± 5 | 115 ± 1.2 | 79 ± 4.2 | 102.3 ± 0.35 | 104.8 ± 0.95 | 100.9 ± 0.84 | 104.4 ± 0.59 | 106.6 ± 0.72 | 76.7 ± 1.6 |
| Cc1ccc(CN2CCNCC2)cc1NC(=O)CNc1ccc(F)c(F)c1 | 112 ± 2.2 | 98.3 ± 5.5 | 100.6 ± 0.38 | 104 ± 3.2 | 88 ± 1.4 | 92.96 ± 0.19 | 113 ± 3.6 | 98.9 ± 2 | 108 ± 3.7 | 102 ± 2.5 | 95.4 ± 2.7 | 90.85 ± 0.73 |
| Cc1cc(OCCCS(C)(=O)=O)cc(C)c1-c1cccc(COc2ccc3c(c2)OC[C@H]3CC(=O)O)c1 [TAK-875] | 61.2 ± 7.8 | 61.5 ± 4 | 75.9 ± 5.2 | 80.9 ± 4.5 | 84.24 ± 0.76 | 84.2 ± 5.3 | 103 ± 3 | 102 ± 1.9 | 103.7 ± 0.45 | 102.5 ± 0.61 | 103 ± 3.5 | 95.16 ± 0.36 |
| OCCN(CCO)c1nc(N2CCCCC2)c2nc(N(CCO)CCO)nc(N3CCCCC3)c2n1 [Dipyridamole] | 102 ± 3 | 98.3 ± 2.2 | 101.5 ± 1 | 95.2 ± 2.5 | 96.7 ± 2.7 | 93.4 ± 8.5 | 101 ± 2.4 | 103.1 ± 0.96 | 103 ± 2.1 | 104 ± 5.4 | 101 ± 6.3 | 101 ± 1.5 |
| CC(C)(C(=O)NCC(F)(F)C(F)(F)F)C(=O)N[C@@H]1C(=O)Nc2ccccc2-c2ccccc21 | 110 ± 1.1 | 115 ± 1.2 | 119.5 ± 0.86 | 113.8 ± 0.66 | 114.3 ± 1.1 | 113 ± 1.8 | 102.1 ± 0.81 | 104 ± 1.3 | 104.2 ± 0.26 | 106 ± 1.1 | 103.7 ± 0.41 | 101.8 ± 0.77 |
| CNC(=O)CN1CCC(Oc2cc3c(Nc4cccc(Cl)c4F)ncnc3cc2OC)CC1 [AZD8931] | 106 ± 2.5 | 104 ± 3 | 98.4 ± 2 | 96.61 ± 0.73 | 99.6 ± 2.1 | 93.4 ± 4.9 | 102 ± 1.5 | 99.7 ± 2.3 | 101 ± 2.6 | 100.3 ± 0.18 | 99 ± 1.7 | 83.2 ± 3.3 |
| CC1(C)CC(=O)c2c(C(F)(F)F)nn(-c3ccc(C(N)=O)c(N[C@H]4CC[C@H](OC(=O)CN)CC4)c3)c2C1 | 63.2 ± 4.8 | 65.7 ± 8 | 36.9 ± 4.2 | 18.7 ± 2.5 | 13.6 ± 2.5 | 17 ± 1.1 | 108 ± 4.1 | 111.5 ± 0.33 | 82.7 ± 3.9 | 7.92 ± 0.44 | 6.41 ± 0.23 | 7.58 ± 0.32 |
| NC1=N[C@@]2(c3cc(NC(=O)c4ccc(F)cn4)ccc3F)COC[C@H]2CS1 | 105 ± 1.8 | 105 ± 1.3 | 105 ± 0.55 | 100 ± 1.3 | 99.9 ± 2 | 96.4 ± 1.9 | 101 ± 4.3 | 101 ± 3.9 | 100 ± 1.9 | 101 ± 2 | 99.2 ± 2.8 | 93.7 ± 1.1 |
| Nc1ncnc2c1c(-c1cnc3[nH]ccc3c1)nn2C1CCCC1 [PP-121] | 102 ± 4.8 | 97.7 ± 2.4 | 89.2 ± 0.2 | 85 ± 1.9 | 56.4 ± 0.66 | 5.4 ± 0.81 | 104.1 ± 0.76 | 103 ± 2.2 | 99.74 ± 0.75 | 86.8 ± 3.6 | 41.5 ± 1.9 | 10.2 ± 0.22 |
| COc1ncc(-c2ccc3nccc(-c4ccnnc4)c3c2)cc1NS(=O)(=O)c1ccc(F)cc1F | 80.7 ± 11 | 68.1 ± 1.7 | 59.2 ± 0.65 | 38.9 ± 1.5 | 23.3 ± 2 | 26.3 ± 1.8 | 107 ± 3.9 | 101.89 ± 0.069 | 91 ± 4.4 | 61.4 ± 2.5 | 47.565 ± 0.012 | 41 ± 2.4 |
| O=c1[nH]c2ccccc2n1CCCN1CCC(n2c(=O)[nH]c3cc(Cl)ccc32)CC1 [Domperidone (Motilium)] | 102.7 ± 0.59 | 96 ± 10 | 95.3 ± 3.6 | 106 ± 1.3 | 98.8 ± 1.5 | 90.8 ± 2.7 | 99.17 ± 0.87 | 93.61 ± 0.19 | 103.3 ± 0.16 | 110 ± 2 | 101.1 ± 0.98 | 96.7 ± 2 |
| COC(=O)[C@H](c1ccccc1Cl)N1CCc2sccc2C1 [Clopidogrel Bisulfate] | 105 ± 1.4 | 102 ± 1.4 | 108.3 ± 0.95 | 105 ± 1.4 | 105 ± 4 | 99.8 ± 5.3 | 109.1 ± 0.85 | 108 ± 4.5 | 111 ± 4.1 | 103 ± 2 | 104.86 ± 0.079 | 102.2 ± 0.55 |
| CC(NC(C)(C)C)C(=O)c1cccc(Cl)c1 (stereo not drawn) [Amfebutamone] | 110 ± 2.9 | 103 ± 1.4 | 104.4 ± 0.4 | 112 ± 2.4 | 103 ± 2.4 | 103 ± 3.5 | 103.2 ± 0.3 | 105 ± 2.2 | 98.8 ± 1.9 | 101 ± 2.8 | 102 ± 2.8 | 102 ± 1.2 |
| CN(C)CC/C=C1/c2ccccc2COc2ccc(CC(=O)O)cc21 [Olopatadine HCl (Opatano)] | 114 ± 2.8 | 114 ± 2.6 | 108 ± 1.5 | 113 ± 3.7 | 105 ± 1.6 | 97.2 ± 6.5 | 104 ± 5 | 103 ± 5.9 | 97 ± 4 | 102 ± 1.3 | 98.51 ± 0.44 | 103 ± 4.8 |
| COC(=O)N[C@H](C(=O)N1CCC[C@H]1c1ncc(-c2ccc(-c3ccc(-c4cnc([C@@H]5CCCN5C(=O)[C@@H](NC(=O)OC)C(C)C)[nH]4)cc3)cc2)[nH]1)C(C)C | 103 ± 3.2 | 105 ± 0.22 | 106 ± 1.6 | 101 ± 3.8 | 96.21 ± 0.14 | 81.1 ± 2 | 100 ± 2.7 | 98.82 ± 0.6 | 100 ± 1.2 | 102 ± 2.3 | 99.4 ± 2.4 | 94.1 ± 1.9 |
| CN(C)c1ccc(-c2nc3ncc(Cl)c(N4CCN(CC(=O)Nc5nccs5)CC4)c3[nH]2)cc1 | 104 ± 2.7 | 96.7 ± 1.2 | 102 ± 4 | 105 ± 1.4 | 101 ± 4.3 | 49.3 ± 1.4 | 101 ± 2.5 | 103.4 ± 0.042 | 101.06 ± 0.096 | 100.6 ± 0.64 | 97.243 ± 0.044 | 47.5 ± 2.9 |
| COc1cc(N2CCC(N3CCN(C)CC3)CC2)ccc1Nc1ncc(Cl)c(Nc2ccccc2S(=O)(=O)C(C)C)n1 [NVP-TAE684] | 105.9 ± 0.18 | 105 ± 2.5 | 100.1 ± 0.29 | 97.9 ± 2.6 | 80.8 ± 1.4 | 3.88 ± 1.5 | 98.4 ± 2.6 | 99.6 ± 1.4 | 99.8 ± 2 | 99.27 ± 0.36 | 75.2 ± 3.5 | 1.56 ± 0.21 |
